Values quoted from earlier work in patent US11903918B2, “Fumarate ester dosage forms with enhanced gastrointestinal tolerability” (BANNER LIFE SCIENCES LLC, priority 2020, dated 2024).
Counter-ions that a name gives are not always drawn.

Legend:
[1] = system: nuclear factor erythroid-derived 2-like (Nrf2) pathway; settings: in vitro and in vivo in humans

solubility in water: highly soluble in water
Structure (SMILES): COC(=O)/C=C/C(=O)OC [dimethyl fumarate, dimethyl (E) butenedioate]
activation of the Nrf2 pathway [1]: activate
